Results: PMC9958325 (Nature Communications, 2023)
Several values for one entry are separate records, joined by “and”; a condition that tells them apart may be missing. Equal entries are not always repeated. Where two headings read alike, the source gives them in different places.

What was measured:
[1] = tested on: SARS-CoV-2 TKYX00012/ο BA.1; experiment: microbe, parasite or virus in culture; assay type: cell-based
[2] = Pharmacokinetic study in PXB-mice (human liver-chimeric)
SARS-CoV-2^WK-521 = experiment: microbe, parasite or virus in culture; assay type: cell-based

CC(C)(C)[C@H](NC(=O)C(F)(F)F)C(=O)N1C[C@H]2[C@@H]([C@H]1C(=O)N[C@H](C#N)C[C@@H]1CCNC1=O)C2(C)C [Nirmatrelvir, reference compound]
EC50 ([1]; Severe acute respiratory syndrome coronavirus 2, Vero C1008, read-out: EC50 against KTKYX00012/ο BA.1): 1.05 ± 0.061 µM | EC50 ([1]; Severe acute respiratory syndrome coronavirus 2, Vero C1008, read-out: EC50 ο BA1, Average): 1.05 µM | EC50 ([1]; Severe acute respiratory syndrome coronavirus 2, Vero C1008, read-out: EC50 ο BA1, individual assays): 1.1 µM | EC50 ([1]; read-out: EC50 ο BA1, individual assays): 1.06 µM and 0.98 µM | concentration at 10 min ([2]; PXB (human liver-chimeric), mouse, plasma, po, 10 mg/kg, plasma concentration, 10 min, individual animals (3 per time point), LC/MS/MS): 1600 ng/mL | concentration at 240 min ([2]; PXB (human liver-chimeric), mouse, plasma, po, 10 mg/kg, plasma concentration, 240 min, individual animals (3 per time point), LC/MS/MS): 47.2 ng/mL | concentration at 1440 min ([2]; PXB (human liver-chimeric), mouse, plasma, po, 10 mg/kg, plasma concentration, 1440 min, individual animals (3 per time point), LC/MS/MS): 0.63 ng/mL | Plasma concentration ([2]; PXB-mice, i.v. 10 mg/kg, 10 min, individual mice, 10 mg/kg): 5525.9 ng/mL and 4420.7 ng/mL | Plasma concentration ([2]; PXB-mice, i.v. 10 mg/kg, 0.17 hr, individual mice, 10 mg/kg): 5530 ng/mL and 4420 ng/mL | Plasma concentration ([2]; PXB-mice, i.v. 10 mg/kg, 60 min, individual mice, 10 mg/kg): 305.4 ng/mL and 496.6 ng/mL | Plasma concentration ([2]; PXB-mice, i.v. 10 mg/kg, 1 hr, individual mice, 10 mg/kg): 310 ng/mL and 500 ng/mL | Plasma concentration ([2]; PXB-mice, i.v. 10 mg/kg, 240 min, individual mice, 10 mg/kg): 10 ng/mL and 10.6 ng/mL and 46.3 ng/mL | Plasma concentration ([2]; PXB-mice, i.v. 10 mg/kg, 4 hr, individual mice, 10 mg/kg): 0.01 µg/ml (2×) and 0.05 µg/ml | Plasma concentration ([2]; PXB-mice, i.v. 10 mg/kg, 480 min, individual mice, 10 mg/kg): 1.3 ng/mL and 2.2 ng/mL | Plasma concentration ([2]; PXB-mice, i.v. 10 mg/kg, 8 hr, individual mice): 0 ng/mL | Plasma concentration ([2]; PXB-mice, i.v. 10 mg/kg, 1440 min, individual mice, 10 mg/kg): 0.2 ng/ml (2×) and 0.9 ng/ml | Plasma concentration ([2]; PXB-mice, i.v. 10 mg/kg, 24 hr, individual mice): 0 ng/mL | Plasma concentration ([2]; PXB-mice, p.o. 10 mg/kg, 10 min, individual mice, 10 mg/kg): 889.5 ng/mL and 980.6 ng/mL | Plasma concentration ([2]; PXB-mice, p.o. 10 mg/kg, 0.17 hr, individual mice, 10 mg/kg): 890 ng/mL and 980 ng/mL | Plasma concentration ([2]; PXB-mice, p.o. 10 mg/kg, 60 min, individual mice, 10 mg/kg): 653.1 ng/mL and 318.8 ng/mL and 407 ng/mL | Plasma concentration ([2]; PXB-mice, p.o. 10 mg/kg, 1 hr, individual mice, 10 mg/kg): 650 ng/mL and 320 ng/mL and 410 ng/mL | Plasma concentration ([2]; PXB-mice, p.o. 10 mg/kg, 240 min, individual mice, 10 mg/kg): 34.6 ng/mL and 30.7 ng/mL | Plasma concentration ([2]; PXB-mice, p.o. 10 mg/kg, 4 hr, individual mice, 10 mg/kg): 30 ng/mL | Plasma concentration ([2]; PXB-mice, p.o. 10 mg/kg, 480 min, individual mice, 10 mg/kg): 4.4 ng/mL and 7.4 ng/mL and 18.7 ng/mL | Plasma concentration ([2]; PXB-mice, p.o. 10 mg/kg, 8 hr, individual mice, 10 mg/kg): 0 ng/mL and 10 ng/mL and 20 ng/mL | Plasma concentration ([2]; PXB-mice, p.o. 10 mg/kg, 1440 min, individual mice, 10 mg/kg): 0.6 ng/mL and 0.5 ng/mL | Plasma concentration ([2]; PXB-mice, p.o. 10 mg/kg, 24 hr, individual mice): 0 ng/mL | Oral F ([2]; male PXB-mouse 10 mg/kg i.v. and p.o., dose-normalized AUC ratio): 56¶ % | concentration at 10 min ([2]; male, PXB (human liver-chimeric), mouse, plasma, iv, 10 mg/kg, Plasma concentration, PXB-mice, i.v. 10 mg/kg, 10 min, individual mice): 4250 ng/mL | concentration at 0.17 hr ([2]; male, PXB (human liver-chimeric), mouse, plasma, iv, 10 mg/kg, Plasma concentration, PXB-mice, i.v. 10 mg/kg, 0.17 hr, individual mice): 4250 ng/mL | concentration at 60 min ([2]; male, PXB (human liver-chimeric), mouse, plasma, iv, 10 mg/kg, Plasma concentration, PXB-mice, i.v. 10 mg/kg, 60 min, individual mice): 344 ng/mL | concentration at 1 hr ([2]; male, PXB (human liver-chimeric), mouse, plasma, iv, 10 mg/kg, Plasma concentration, PXB-mice, i.v. 10 mg/kg, 1 hr, individual mice): 340 ng/mL | concentration at 480 min ([2]; male, PXB (human liver-chimeric), mouse, plasma, iv, 10 mg/kg, Plasma concentration, PXB-mice, i.v. 10 mg/kg, 480 min, individual mice): 2.2 ng/mL | concentration at 8 hr ([2]; male, PXB (human liver-chimeric), mouse, plasma, iv, 10 mg/kg, Plasma concentration, PXB-mice, i.v. 10 mg/kg, 8 hr, individual mice): 0 ng/mL | concentration at 24 hr ([2]; male, PXB (human liver-chimeric), mouse, plasma, iv, 10 mg/kg, Plasma concentration, PXB-mice, i.v. 10 mg/kg, 24 hr, individual mice): 0 ng/mL | Cmax ([2]; male, PXB (human liver-chimeric), mouse, plasma, po, 10 mg/kg): 1160 ng/mL | concentration at 10 min ([2]; male, PXB (human liver-chimeric), mouse, plasma, po, 10 mg/kg, Plasma concentration, PXB-mice, p.o. 10 mg/kg, 10 min, individual mice): 1600 ng/mL | concentration at 0.17 hr ([2]; male, PXB (human liver-chimeric), mouse, plasma, po, 10 mg/kg, Plasma concentration, PXB-mice, p.o. 10 mg/kg, 0.17 hr, individual mice): 1600 ng/mL | concentration at 240 min ([2]; male, PXB (human liver-chimeric), mouse, plasma, po, 10 mg/kg, Plasma concentration, PXB-mice, p.o. 10 mg/kg, 240 min, individual mice): 47.2 ng/mL | concentration at 4 hr ([2]; male, PXB (human liver-chimeric), mouse, plasma, po, 10 mg/kg, Plasma concentration, PXB-mice, p.o. 10 mg/kg, 4 hr, individual mice): 50 ng/mL | concentration at 1440 min ([2]; male, PXB (human liver-chimeric), mouse, plasma, po, 10 mg/kg, Plasma concentration, PXB-mice, p.o. 10 mg/kg, 1440 min, individual mice): 0.6 ng/mL | concentration at 24 hr ([2]; male, PXB (human liver-chimeric), mouse, plasma, po, 10 mg/kg, Plasma concentration, PXB-mice, p.o. 10 mg/kg, 24 hr, individual mice): 0 ng/mL | Plasma concentration ([2]; p.o., 10 min, individual animals (3 per time point), LC/MS/MS): 889.46 ng/mL and 980.64 ng/mL | Plasma concentration ([2]; p.o., 60 min, individual animals (3 per time point), LC/MS/MS): 653.07 ng/mL and 318.79 ng/mL and 406.97 ng/mL | Plasma concentration ([2]; p.o., 240 min, individual animals (3 per time point), LC/MS/MS): 34.58 ng/mL and 30.74 ng/mL | Plasma concentration ([2]; p.o., 480 min, individual animals (3 per time point), LC/MS/MS): 4.42 ng/mL and 7.44 ng/mL and 18.67 ng/mL | Plasma concentration ([2]; p.o., 1440 min, individual animals (3 per time point), LC/MS/MS): 0.61 ng/mL and 0.54 ng/mL | EC95, Average (SARS-CoV-2^WK-521): 7.815
